Where “and” joins values, the source holds several entries; their conditions need not be identical. Identical values can stand only once. Entries after “also recorded” stand apart in the source; their conditions may differ. Like-named read-outs stand apart in the source and are kept apart here.
Tests used:
α-syn fibrils [1] = target: T1, α-syn fibrils (Homo sapiens, UniProt P37840)
tau fibrils [2] = target: T2, tau fibrils (Homo sapiens, UniProt P10636)
Aβ1-42 fibrils [3] = target: T3, Aβ1-42 fibrils (Homo sapiens, UniProt P05067)
α-syn fibrils [4] = target: T1, α-syn fibrils; assay: biochemical
Aβ1-42 fibrils [5] = target: T3, Aβ1-42 fibrils; assay: biochemical
tau fibrils [6] = target: T2, tau fibrils; assay: biochemical
Lewy bodies = Lewy bodies (Homo sapiens, UniProt P37840); assay: Fluorescent staining of postmortem PD/DLB midbrain tissue; details: 5 μM compound, PD/DLB midbrain sections, fluorescence microscopy
[7] = Stability of isomers in solution measured by HPLC; type: physicochemical; details: for time for isolated pure Z,E and E,E isomers to isomerize to a mixture: after HPLC separation of the isomers
Aβ plaques = Aβ plaques (Homo sapiens, UniProt P05067); assay: Fluorescent staining of postmortem AD temporal lobe tissue; details: 5 μM compound, AD temporal lobe sections, fluorescence microscopy
Aβ plaques, sequence (P05067 672-711 limits assumed): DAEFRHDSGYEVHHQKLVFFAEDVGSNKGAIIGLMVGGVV

T3 sequence (P05067 672-713 limits assumed): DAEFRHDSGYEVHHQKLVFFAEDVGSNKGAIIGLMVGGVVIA
T2 sequence (P10636 560-692): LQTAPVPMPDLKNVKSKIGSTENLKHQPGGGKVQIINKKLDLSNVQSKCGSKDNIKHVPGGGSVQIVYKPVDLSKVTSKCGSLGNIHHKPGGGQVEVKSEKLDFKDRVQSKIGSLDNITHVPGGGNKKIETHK

With “3-(3-(4-(Dimethylamino)phenyl)allylidene)-1-(pyridin-4-ylmethyl)indolin-2-one [Compound 29]” the Ki (α-syn fibrils [1]) was 92 ± 11.2 nM, the Ki (tau fibrils [2]) was 188 ± 68 nM and the Ki (Aβ1-42 fibrils [3]) was 45.9 ± 19.4 nM.

Work on “3-(4-(Dimethylamino)benzylidene)-1-(pyridin-4-ylmethyl)indolin-2-one [Compound 11]” yielded a Ki (α-syn fibrils [1]) of 150 ± 45.7 nM, a Ki (tau fibrils [2]) of 364 ± 121 nM and a Ki (Aβ1-42 fibrils [3]) of 87.1 ± 34.1 nM.

For `O=C1Nc2ccccc2C1=C/C=C/c1ccccc1` [Compound 18, 3-(3-Phenylallylidene)indolin-2-one], the Ki (α-syn fibrils [4]) was 206 nM and 207 nM, the Ki (Aβ1-42 fibrils [5]) was 267 nM and the Ki (tau fibrils [6]) was 522 nM.

With `COc1ccc(/C=C/C=C2C(=O)Nc3ccccc32)cc1` [Compound 19, 3-(3-(4-Methoxyphenyl)allylidene)indolin-2-one] the Ki (α-syn fibrils [4]) was 62 nM and 61.1 nM, the Ki (Aβ1-42 fibrils [5]) was 125 nM and 126 nM and the Ki (tau fibrils [6]) was 169 ± 22.3 nM.

For `CN(C)c1ccc(/C=C/C=C2C(=O)Nc3ccccc32)cc1` [Compound 20, 3-(3-(4-(Dimethylamino)phenyl)allylidene)indolin-2-one], the “labeling of Lewy bodies” value (Lewy bodies) was “label both Lewy bodies and Aβ plaques; also recorded: high labeling of both Lewy Bodies and Aβ plaques”, the Ki (α-syn fibrils [4]) was 41 nM and 40.7 nM and the “time for isolated pure Z,E and E,E isomers to isomerize to a mixture” value [7] was ≤ 20 min. For the same molecule, the Ki (Aβ1-42 fibrils [5]) was 27 nM and 27.6 nM, the Ki (tau fibrils [6]) was 54 nM and 53.7 nM and the “labeling of Aβ plaques” value (Aβ plaques) was “label both Lewy bodies and Aβ plaques; also recorded: high labeling of both Lewy Bodies and Aβ plaques”.

In the case of `CN(C)c1ccc(/C=C/C=C2C(=O)Nc3ncccc32)cc1` [Compound 21, 3-(3-(4-(Dimethylamino)phenyl)allylidene)-1H-pyrrolo[2,3-b]pyridin-2(3H)-one], the Ki (α-syn fibrils [4]) is reported as 11.5 ± 2 nM, the Ki (Aβ1-42 fibrils [5]) is reported as 15.3 ± 5.5 nM and the Ki (tau fibrils [6]) is reported as 35.1 ± 12.3 nM.

With `CN(C)c1ccc(/C=C/C=C2C(=O)Nc3ccc(O)cc32)cc1` [Compound 22, 3-(3-(4-(Dimethylamino)phenyl)allylidene)-5-hydroxyindolin-2-one] the Ki (α-syn fibrils [4]) was 54 ± 17.9 nM, the Ki (Aβ1-42 fibrils [5]) was 37.1 ± 13.6 nM and the Ki (tau fibrils [6]) was 48 ± 17 nM.

In the case of `COc1ccc(/C=C/C=C2C(=O)N(Cc3ccccc3)c3ccccc32)cc1` [Compound 24, 1-Benzyl-3-(3-(4-methoxyphenyl)allylidene)indolin-2-one], the Ki (α-syn fibrils [4]) is reported as 72.5 ± 22.6 nM, the Ki (Aβ1-42 fibrils [5]) is reported as 741 ± 255 nM and the Ki (tau fibrils [6]) is reported as 718 ± 295 nM.

`CN(C)c1ccc(/C=C/C=C2C(=O)N(C)c3ccccc32)cc1` [Compound 25, 3-(3-(4-(Dimethylamino)phenyl)allylidene)-1-methylindolin-2-one] gave a Ki (α-syn fibrils [4]) of 63.7 ± 29.6 nM, a Ki (Aβ1-42 fibrils [5]) of 56 ± 14.8 nM and a Ki (tau fibrils [6]) of 229 ± 121 nM.

`CN(C)c1ccc(/C=C/C=C2C(=O)N(Cc3ccccc3)c3ccccc32)cc1` [Compound 26, 1-Benzyl-3-(3-(4-(dimethylamino)phenyl)allylidene)indolin-2-one] gave a Ki (α-syn fibrils [4]) of 40.9 ± 25.2 nM, a Ki (Aβ1-42 fibrils [5]) of 358 ± 162 nM and a Ki (tau fibrils [6]) of 374 ± 209 nM.

In the case of `COc1ccc(CN2C(=O)C(=C/C=C/c3ccc(N(C)C)cc3)c3ccccc32)cc1` [Compound 27, 3-(3-(4-(Dimethylamino)phenyl)allylidene)-1-(4-methoxybenzyl)indolin-2-one], the Ki (α-syn fibrils [4]) is reported as 54.6 ± 11.4 nM, the “time for isolated pure Z,E and E,E isomers to isomerize to a mixture” value [7] is reported as ≤ 20 min and the Ki (Aβ1-42 fibrils [5]) is reported as 130 ± 41.4 nM. For the same molecule, the Ki (tau fibrils [6]) was 240 ± 158 nM.

With `CN(C)c1ccc(/C=C/C=C2C(=O)N(Cc3ccc([N+](=O)[O-])cc3)c3ccccc32)cc1` [Compound 28, 3-(3-(4-(Dimethylamino)phenyl)allylidene)-1-(4-nitrobenzyl)indolin-2-one] the Ki (α-syn fibrils [4]) was 4 nM and 4.2 nM, the Ki (Aβ1-42 fibrils [5]) was 92.4 ± 21.9 nM and the Ki (tau fibrils [6]) was 90 ± 48.8 nM.

For `CCOC(=O)N1C(=O)C(=C/C=C/c2ccc(N(C)C)cc2)c2ccccc21` [Compound 30, Ethyl 3-(3-(4-(dimethylamino)phenyl)allylidene)-2-oxoindoline-1-carboxylate], the Ki (α-syn fibrils [4]) was 45.3 ± 9 nM, the Ki (Aβ1-42 fibrils [5]) was 84 ± 35 nM and the Ki (tau fibrils [6]) was 263 ± 110 nM.

Molecule `CN(C)c1ccc(/C=C/C=C2C(=O)N(Cc3ccccc3)c3ncccc32)cc1` [Compound 31, 1-Benzyl-3-(3-(4-(dimethylamino)phenyl)allylidene)-1H-pyrrolo[2,3-b]pyridin-2(3H)-one] has a Ki (α-syn fibrils [4]) of 68.3 ± 31.2 nM, a Ki (Aβ1-42 fibrils [5]) of 85.1 ± 23 nM and a Ki (tau fibrils [6]) of 257 ± 117 nM.

Molecule `COc1ccc(CN2C(=O)C(=C/C=C/c3ccc(N(C)C)cc3)c3cccnc32)cc1` [Compound 32, 3-(3-(4-(Dimethylamino)phenyl)allylidene)-1-(4-methoxybenzyl)-1H-pyrrolo[2,3-b]pyridin-2(3H)-one] has a Ki (α-syn fibrils [4]) of 29.8 ± 6.6 nM, a Ki (Aβ1-42 fibrils [5]) of 107 ± 18.9 nM and a Ki (tau fibrils [6]) of 204 ± 26.7 nM.

`CN(C)c1ccc(/C=C/C=C2C(=O)N(Cc3ccc(N)cc3)c3ccccc32)cc1` [Compound 33, 1-(4-Aminobenzyl)-3-(3-(4-(dimethylamino)phenyl)allylidene)indolin-2-one] showed a Ki (α-syn fibrils [4]) of 43.6 ± 20 nM, a Ki (Aβ1-42 fibrils [5]) of 98.9 ± 12.1 nM and a Ki (tau fibrils [6]) of 131 ± 51.5 nM.

Work on `CN(C)c1ccc(/C=C/C=C2C(=O)N(c3ccccc3)c3ccccc32)cc1` [Compound 36, 3-(3-(4-(Dimethylamino)phenyl)allylidene)-1-phenylindolin-2-one] yielded a Ki (α-syn fibrils [4]) of 68.1 ± 33 nM, a Ki (Aβ1-42 fibrils [5]) of 287 ± 142 nM and a Ki (tau fibrils [6]) of 465 ± 94.6 nM.

With `O=C1Nc2ccccc2/C1=C/C=C/c1ccc([N+](=O)[O-])cc1` [Compound 41a, (Z)-3-((E)-3-(4-Nitrophenyl)allylidene)indolin-2-one] the “time stable in solution” value ([7]; CH2Cl2-MeOH (1:1), HPLC peak and retention time) was ≥ 20 h.

In the case of `O=C1Nc2ccccc2/C1=C\C=C\c1ccc([N+](=O)[O-])cc1` [Compound 41b, (E)-3-((E)-3-(4-Nitrophenyl)allylidene)indolin-2-one], the “isomerization to an un-identified isomer” value ([7]; CH2Cl2-MeOH (1:1), 20 h, HPLC) is reported as 33%.

`Nc1ccc(/C=C/C=C2C(=O)Nc3ccccc32)cc1` [Compound 47, 3-(3-(4-Aminophenyl)allylidene)indolin-2-one] gave a Ki (α-syn fibrils [4]) of 44.8 ± 15.6 nM, a Ki (Aβ1-42 fibrils [5]) of 50.8 ± 18.5 nM and a Ki (tau fibrils [6]) of 38.3 ± 28.7 nM.

Reference: paper PMC4624220 (Journal of medicinal chemistry, 2015)
